Entries after “also recorded” stand apart in the source; their conditions may differ. Bridge positions count the residues as written; N and C are the ends. Peptide text beside a SMILES is read from it.
Legend:
human ASIC3 [1] = target: T1, human ASIC3 (Homo sapiens, UniProt Q9UHC3); experiment: Inhibition of sustained hASIC3 current, two-electrode voltage clamp, Xenopus laevis oocytes; assay type: cell-based; settings: for Hill coefficient, sustained currents / IC50: hASIC3 in X. laevis oocytes, mean ± SEM (n = 4–6); for IC50: compound applied with 3.5 s pH stimulus, holding -50 mV, logistic fit, read-out: IC50, sustained currents
T1 construct: host or cells: Xenopus laevis oocytes (cRNA injection)
T1 sequence (Q9UHC3 1-531): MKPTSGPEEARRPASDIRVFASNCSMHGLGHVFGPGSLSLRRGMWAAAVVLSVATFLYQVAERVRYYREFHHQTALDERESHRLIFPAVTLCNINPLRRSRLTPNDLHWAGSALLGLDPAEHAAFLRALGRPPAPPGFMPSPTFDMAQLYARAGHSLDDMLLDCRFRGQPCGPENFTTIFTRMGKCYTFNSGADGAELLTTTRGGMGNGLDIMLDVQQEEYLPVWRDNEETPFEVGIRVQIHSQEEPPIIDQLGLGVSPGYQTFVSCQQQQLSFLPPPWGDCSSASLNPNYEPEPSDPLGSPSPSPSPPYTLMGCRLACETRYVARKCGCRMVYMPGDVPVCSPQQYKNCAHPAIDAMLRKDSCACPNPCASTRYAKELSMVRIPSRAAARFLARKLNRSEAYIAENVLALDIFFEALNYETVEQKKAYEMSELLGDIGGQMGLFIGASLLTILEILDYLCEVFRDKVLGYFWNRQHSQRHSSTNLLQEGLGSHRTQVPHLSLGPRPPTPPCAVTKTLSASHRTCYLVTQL
From the text: (§1) Whole-cell currents were induced by pH drops and recorded at the holding potential −50 mV. (A) Effect of ligands on the transient component of current at conditioning pH 7.8. The control trace is shown first; (B) Effect of ligands on the sustained component at conditioning pH 7.3. The black line is the control trace, and the red line is the trace of activation in the presence of a ligand. Dose-response curves for transient (C) and sustained (D) currents’ inhibitions are shown. Data are shown as mean ± SEM (n = 4–6) and fitted with the logistic equation (solid lines).
The analysis of a sustained component of the current was carried out in a bath solution (pH 7.3) where the transient component of the current was completely desensitized by protons. The pH activation stimulus (3.5 s) was applied in the presence of the testing compound (Figure 1B).
X. laevis oocytes were removed surgically and defolliculated by collagenase (Sigma-Aldrich, Moscow, Russia). Oocytes were injected with 2.5 to 10 ng of human ASIC3 cRNA (AF057711.1). […] To induce transient and/or sustained currents, two different protocols with different conditioning pH were used. Microelectrodes were filled with a 3 M KCl solution. The working buffer solution was ND-96 titrated by NaOH to pH 7.8 or 7.3. The solution for the pH shift was constructed based on the ND-96 solution, in which 5 mM HEPES was replaced with 10 mM acetic acid (pH 4.0) or 10 mM MES (pH 5.5) in a supplementary 0.1% BSA solution. The duration of the activation pulses was 3.5 s.
(§2) The analysis of the electrophysiological data was performed using the OriginPro 8.6 programme.

human ASIC3 [2] = target: T1, human ASIC3; experiment: Inhibition of transient hASIC3 current, two-electrode voltage clamp, Xenopus laevis oocytes; assay type: cell-based
Experimental: The activity of ligands was checked on human ASIC3 (hASIC3) channels expressed in Xenopus laevis oocytes. […] Two different protocols were used to reveal the effects of ligands on sustained and transient components of acid-induced hASIC3 currents. The influence of the compounds on the transient current amplitude was estimated after preincubation for 15 s before the activation in a low alkali bath solution (pH 7.8), which ensured an absence of steady-state desensitization for the transient current (Figure 1A). The compounds’ inhibition effectiveness was calculated using the value of maximal amplitudes. […] The inhibitory effect was concentration-dependent and fit well using a logistic equation.
as §1, with “Figure 1 Comparison of ligands’ antagonistic effects on hASIC3 channels. Whole-cell” for “Whole-cell”
X. laevis oocytes were removed surgically and defolliculated by collagenase (Sigma-Aldrich, Moscow, Russia). Oocytes were injected with 2.5 to 10 ng of human ASIC3 cRNA (AF057711.1). The cRNA transcripts were synthesised from a NaeI-linearized ASIC3 cDNA template (pcDNA3.1+humanASIC3 subcloned from clone EX-Q0260- B02 (GeneCopoeia, Inc., Rockville, MD USA) using a HiScribe T7 High Yield RNA Synthesis Kit (New England Biolabs, Ipswich, MA, USA) according to the manufacturer’s protocol for capped transcripts. After the injection, oocytes were kept for 3 to 6 days at 19° in a ND-96 medium containing (in mM) 96 NaCl, 2 KCl, 1.8 CaCl2, 1 MgCl2, and 5 HEPES titrated to pH 7.4 with NaOH supplemented with gentamycin (50 µg/mL). Two-electrode voltage clamp recordings were performed using a GeneClamp 500 amplifier (Axon Instruments, Union City, CA, USA), and the data were filtered at 20 Hz and digitized at 100 Hz by an AD converter L780 (LCard, Moscow, Russia) using in-house software. To induce transient and/or sustained currents, two different protocols with different conditioning pH were used. Microelectrodes were filled with a 3 M KCl solution. The working buffer solution was ND-96 titrated by NaOH to pH 7.8 or 7.3. The solution for the pH shift was constructed based on the ND-96 solution, in which 5 mM HEPES was replaced with 10 mM acetic acid (pH 4.0) or 10 mM MES (pH 5.5) in a supplementary 0.1% BSA solution. The duration of the activation pulses was 3.5 s.
as §2

[3] = hASIC3 in X. laevis oocytes, conditioning pH 7.8, mean ± SEM (n = 4–6)

Row | SMILES | Rank of potency, sustained component inhibition (human ASIC3 [1]) | Inhibition of sustained current (in words) (human ASIC3 [1]; conditioning pH 7.3) | Hill coefficient, sustained currents (human ASIC3 [1]; conditioning pH 7.3) | inhibition at 50 µM (human ASIC3 [1]; pH 7.3, read-out: Inhibition of sustained current amplitude at saturation concentration) | Rank of in vitro potency, transient component of hASIC3 current (human ASIC3 [2]) | Concentration needed to block transient current relative to APETx2 (human ASIC3 [2]; Ugr9-1 versus APETx2) | Lower efficacy in inhibition of the transient component relative to APETx2 (human ASIC3 [2]; Ugr9-1 versus APETx2) | Inhibition of transient current (in words) (human ASIC3 [2]; conditioning pH 7.8) | Hill coefficient, transient currents (human ASIC3 [2]; [3]) | inhibition at 3000 µM (human ASIC3 [1]; about 3 mM, conditioning pH 7.3, read-out: Inhibition of sustained current amplitude at saturation concentration) | IC50 (human ASIC3 [1]; conditioning pH 7.3) | Inhibition of sustained current amplitude at saturation concentration (human ASIC3 [1]; about 3 mM, conditioning pH 7.3) | Inhibition of sustained current (in words) (human ASIC3 [1]; conditioning pH 7.3, listed as Sevanol) | IC50 (human ASIC3 [2]; hASIC3 in X. laevis oocytes, conditioning pH 7.8, 15 s preincubation, holding -50 mV, logistic fit, mean ± SEM (n = 4–6), read-out: IC50, transient currents) | Lower efficacy in vitro relative to APETx2 (human ASIC3 [2]; sevanol versus APETx2) | Lower efficacy in vitro relative to Ugr9-1 (human ASIC3 [2]; sevanol versus Ugr9-1)
1 | CC[C@H](C)[C@H](N)C(=O)N[C@@H](CO)C(=O)N[C@H](C(=O)N[C@@H](CC(=O)O)C(=O)N1CCC[C@H]1C(=O)N1CCC[C@H]1C(=O)N[C@H]1CSSC[C@@H](C(=O)NCC(=O)N[C@@H](C)C(=O)N[C@H](C(=O)O)C(C)C)NC(=O)CNC(=O)[C@H](Cc2ccc(O)cc2)NC(=O)[C@H](C)NC(=O)[C@H](CC(=O)O)NC(=O)[C@H](Cc2ccc(O)cc2)NC(=O)[C@H](C(C)C)NC(=O)[C@@H]2CSSC[C@H](NC(=O)[C@H](Cc3ccccc3)NC(=O)[C@H](CCCNC(=N)N)NC1=O)C(=O)N[C@@H](Cc1ccc(O)cc1)C(=O)N[C@@H](Cc1c[nH]cn1)C(=O)N[C@@H](CCCNC(=N)N)C(=O)N[C@@H](CC(=O)O)C(=O)NCC(=O)N[C@@H](CO)C(=O)NCC(=O)N[C@@H](CC(N)=O)C(=O)N2)[C@@H](C)CC [Ugr9-1] (H-ISIDPPCRFCYHRDGSGNCVYDAYGCGAV-OH; disulfide 7-26, 10-19; N-terminus and C-terminus assumed) | Ugr9-1 > sevanol > diclofenac | decreased transient and sustained components of the current | 1.74 ± 0.51 | ~50% | APETx2 > Ugr9-1 > sevanol | 30 times | 30 times | completely blocked the transient current of ASIC3; also recorded: decreased transient and sustained components of the current | 1.86 ± 0.16 |  |  |  |  |  |  | 
2 | O=C(O)Cc1ccccc1Nc1c(Cl)cccc1Cl [diclofenac, reference compound] | Ugr9-1 > sevanol > diclofenac | significantly weaker in their inhibitory potency when compared to peptide toxin Ugr9-1 |  |  |  |  |  | not detected |  | ~50% | 856 ± 106 µM |  |  |  |  | 
3 | O=C(O)C[C@H](C(=O)O)[C@@H](OC(=O)C1=Cc2cc(O)c(O)cc2[C@@H](c2ccc(O)c(O)c2)[C@@H]1C(=O)O[C@@H](C(=O)O)[C@H](CC(=O)O)C(=O)O)C(=O)O [sevanol] | Ugr9-1 > sevanol > diclofenac | decreased transient and sustained components of the current | 2.4 ± 0.4 |  | APETx2 > Ugr9-1 > sevanol |  |  | had much less potency and inhibited transient currents in submillimolar concentrations; also recorded: complete inhibition was observed; also recorded: decreased transient and sustained components of the current | 1.98 ± 0.24 |  | 259 ± 39 µM | approximately 50% | significantly weaker in their inhibitory potency when compared to peptide toxin Ugr9-1 | 331 ± 21 µM | 1000 fold | 35 fold
